# According to patent US20060069132A1, “Azolecarboxamide herbicides” (priority 2004, published 2006):
# Tests used:
# yellow nutsedge = assay: Test C pre-/postemergence herbicide test; type: in vivo, Cyperus esculentus; details: for Nutsedge, Yellow plant response rating: 500 g ai/ha
# Summary of the method: (§1)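 Pre/post spray; non-phytotoxic solvent + surfactant. Post-timing 1–4 leaves, 2–18 cm. Read-out: visual % control vs untreated, day 12–14, greenhouse.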
# morningglory [1] = assay: Test A pre-/postemergence herbicide test; type: in vivo, Ipomoea spp.
# Summary of the method: (§2)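 Greenhouse injury scoring (0–100, complete control = 100) at approximately ten days follows simultaneous pre- and postemergence application. Soil received a directed spray after seeding; seedlings of 2–10 cm at the one- to two-leaf stage were sprayed to runoff.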
# Surinam grass = assay: Test C pre-/postemergence herbicide test; type: in vivo, Urochloa decumbens; details: for Surinam Grass plant response rating: 500 g ai/ha
# Summary of the method: as §1
# velvetleaf = assay: Test A pre-/postemergence herbicide test; type: in vivo, Abutilon theophrasti
# Summary of the method: as §2
# corn = assay: Test C pre-/postemergence herbicide test; type: in vivo, Zea mays; details: for Corn plant response rating: 500 g ai/ha
# Summary of the method: as §1
# lambsquarters = assay: Test C pre-/postemergence herbicide test; type: in vivo, Chenopodium album; details: for Lambsquarters plant response rating: 500 g ai/ha
# Summary of the method: as §1
# [2] = test system: common (oilseed) sunflower; assay: Test C pre-/postemergence herbicide test; type: in vivo, Helianthus annuus; details: for Sunflower plant response rating: Preemergence, 500 g ai/ha, scale 0 to 100, 0 no effect, 100 complete control
# Summary of the method: as §1
# morningglory [3] = assay: Test C pre-/postemergence herbicide test; type: in vivo, Ipomoea coccinea; design: key to Plant response rating, Morningglory: 0 = no effect, 100 = complete control; details: for Morningglory plant response rating: 500 g ai/ha
# Summary of the method: as §1
# woolly cupgrass = assay: Test C pre-/postemergence herbicide test; type: in vivo, Eriochloa villosa; details: for Cupgrass, Woolly plant response rating: 500 g ai/ha
# Summary of the method: as §1
# giant foxtail = assay: Test C pre-/postemergence herbicide test; type: in vivo, Setaria faberi; details: for Foxtail, Giant plant response rating: 500 g ai/ha
# Summary of the method: as §1
# [4] = 62 g ai/ha, preemergence, scale 0 to 100
# [5] = 125 g ai/ha, scale 0 (no effect) to 100 (complete control), visual, 12 to 14 days, preemergence
# [6] = 250 g ai/ha, scale 0-100, preemergence
# [7] = Preemergence, scale 0 to 100, 0 no effect, 100 complete control
# [8] = Postemergence, 500 g ai/ha, 0 to 100 scale, 0 no effect, 100 complete control
# [9] = Postemergence, 2000 g ai/ha, 0 to 100 scale, 0 no effect, 100 complete control
# [10] = Preemergence, 2000 g ai/ha, visual rating, 0 to 100 scale (0 no effect, 100 complete control)
# [11] = preemergence, 500 g ai/ha, visual injury, 0 to 100 scale (0 no effect, 100 complete control)
# [12] = 250 g ai/ha, scale 0 to 100 (0 no effect, 100 complete control), visual, 12 to 14 days, preemergence
# [13] = Postemergence, 250 g ai/ha, scale 0 to 100, 0 no effect, 100 complete control
# [14] = postemergence, 62 g ai/ha, scale 0 to 100
# [15] = Preemergence, 500 g ai/ha, visual rating, 0 to 100 scale (0 no effect, 100 complete control)
# [16] = Preemergence, 2000 g ai/ha, 0 to 100 scale, 0 no effect, 100 complete control
# [17] = Postemergence, 125 g ai/ha, scale 0 to 100, 0 no effect, 100 complete control
compound,measurement,setting,value
CC(=NO)c1cccc(NC(=O)c2sc(C(C)(C)C)nc2C)c1 [Compound 195],"Plant response rating, Nutsedge, Yellow",yellow nutsedge; [4],0
same,"Plant response rating, Nutsedge, Yellow",yellow nutsedge; [5],0
same,"Plant response rating, Nutsedge, Yellow",yellow nutsedge; [6],0
same,"Nutsedge, Yellow plant response rating",yellow nutsedge; [7],70
same,Morningglory plant response rating,morningglory [1]; [8],10
same,"Plant response rating, Morningglory",morningglory [1]; [9],10
same,Morningglory plant response rating,morningglory [1]; [10],10
same,Morningglory plant response rating,morningglory [1]; [11],5
same,"Plant response rating, Surinam Grass",Surinam grass; [4],0
same,"Plant response rating, Surinam Grass",Surinam grass; [5],0
same,"Plant response rating, Surinam Grass",Surinam grass; [6],85
same,Surinam Grass plant response rating,Surinam grass; [7],85
same,Velvetleaf plant response rating,velvetleaf; [8],0
same,"Plant response rating, Velvetleaf",velvetleaf; [9],15
same,Velvetleaf plant response rating,velvetleaf; [10],15
same,Velvetleaf plant response rating,velvetleaf; [11],0
same,"Plant response rating, Corn",corn; [4],0
same,"Plant response rating, Corn",corn; [5],0
same,"Plant response rating, Corn",corn; [6],0
same,Corn plant response rating,corn; [7],0
same,"Plant response rating, Lambsquarters",lambsquarters; [4],0
same,"Plant response rating, Lambsquarters",lambsquarters; [5],0
same,"Plant response rating, Lambsquarters",lambsquarters; [6],10
same,Lambsquarters plant response rating,lambsquarters; [7],95
same,"Plant response rating, Sunflower",[2]; [4],0
same,"Plant response rating, Sunflower",[2]; [5],0
same,"Plant response rating, Sunflower",[2]; [6],0
same,Sunflower plant response rating,[2],10
same,"Plant response rating, Morningglory",morningglory [3]; [4],0
same,"Plant response rating, Morningglory",morningglory [3]; [5],0
same,"Plant response rating, Morningglory",morningglory [3]; [6],0
same,Morningglory plant response rating,morningglory [3]; [7],0
same,"Plant response rating, Cupgrass, Woolly",woolly cupgrass; [4],0
same,"Plant response rating, Cupgrass, Woolly",woolly cupgrass; [5],0
same,"Plant response rating, Cupgrass, Woolly",woolly cupgrass; [6],10
same,"Cupgrass, Woolly plant response rating",woolly cupgrass; [7],10
same,"Plant response rating, Foxtail, Giant",giant foxtail; [4],0
same,"Plant response rating, Foxtail, Giant",giant foxtail; [5],0
same,"Plant response rating, Foxtail, Giant",giant foxtail; [6],0
same,"Foxtail, Giant plant response rating",giant foxtail; [7],20
C=CCNC(=O)c1cccc(NC(=O)c2cc(C(C)(C)C)nn2CC)c1 [Compound 46],"Plant response rating (0 = no effect, 100 = complete control), Nutsedge, Yellow","yellow nutsedge; 62 g ai/ha, preemergence",0
same,"Plant response rating, Nutsedge, Yellow",yellow nutsedge; [5],0
same,"Plant response rating, Nutsedge, Yellow",yellow nutsedge; [12],0
same,"Nutsedge, Yellow plant response rating","yellow nutsedge; Postemergence, scale 0 to 100",40
same,"Plant response rating, Nutsedge, Yellow",yellow nutsedge; [13],20
same,"Nutsedge, Yellow plant response rating",yellow nutsedge; [7],0
same,"Plant response rating, Nutsedge, Yellow",yellow nutsedge; [14],20
same,"Plant response rating, Morningglory",morningglory [1]; [8],40
same,"Plant response rating, Morningglory",morningglory [1]; [9],65
same,Morningglory plant response rating,morningglory [1]; [15],40
same,Morningglory plant response rating,morningglory [1]; [16],65
same,"Plant response rating (0 = no effect, 100 = complete control), Surinam Grass","Surinam grass; 62 g ai/ha, preemergence",10
same,"Plant response rating, Surinam Grass",Surinam grass; [5],30
same,"Plant response rating, Surinam Grass",Surinam grass; [12],60
same,Surinam Grass plant response rating,"Surinam grass; Postemergence, scale 0 to 100",50
same,"Plant response rating, Surinam Grass",Surinam grass; [13],50
same,Surinam Grass plant response rating,Surinam grass; [7],80
same,"Plant response rating, Surinam Grass",Surinam grass; [14],40
same,"Plant response rating, Velvetleaf",velvetleaf; [9],75
same,Velvetleaf plant response rating,velvetleaf; [15],30
same,Velvetleaf plant response rating,velvetleaf; [16],85
same,"Plant response rating (0 = no effect, 100 = complete control), Corn","corn; 62 g ai/ha, preemergence",0
same,"Plant response rating, Corn",corn; [5],0
same,"Plant response rating, Corn",corn; [12],10
same,Corn plant response rating,"corn; Postemergence, scale 0 to 100",80
same,"Plant response rating, Corn",corn; [17],80
same,"Plant response rating, Corn",corn; [13],80
same,Corn plant response rating,corn; [7],10
same,"Plant response rating, Corn",corn; [14],80
same,"Plant response rating (0 = no effect, 100 = complete control), Lambsquarters","lambsquarters; 62 g ai/ha, preemergence",100
same,"Plant response rating, Lambsquarters",lambsquarters; [5],100
same,"Plant response rating, Lambsquarters",lambsquarters; [12],100
same,Lambsquarters plant response rating,"lambsquarters; Postemergence, scale 0 to 100",100
same,"Plant response rating, Lambsquarters",lambsquarters; [13],100
same,Lambsquarters plant response rating,lambsquarters; [7],100
same,"Plant response rating, Lambsquarters",lambsquarters; [14],80
same,"Plant response rating (0 = no effect, 100 = complete control), Sunflower","[2]; 62 g ai/ha, preemergence",0
same,"Plant response rating, Sunflower",[2]; [5],10
same,"Plant response rating, Sunflower",[2]; [12],10
same,Sunflower plant response rating,[2],10
same,"Plant response rating (0 = no effect, 100 = complete control), Morningglory","morningglory [3]; 62 g ai/ha, preemergence",0
same,"Plant response rating, Morningglory",morningglory [3]; [5],0
same,"Plant response rating, Morningglory",morningglory [3]; [12],90
same,Morningglory plant response rating,"morningglory [3]; Postemergence, scale 0 to 100",80
same,"Plant response rating, Morningglory",morningglory [3]; [13],60
same,Morningglory plant response rating,morningglory [3]; [7],90
same,"Plant response rating, Morningglory",morningglory [3]; [14],60
same,"Plant response rating (0 = no effect, 100 = complete control), Cupgrass, Woolly","woolly cupgrass; 62 g ai/ha, preemergence",10
same,"Plant response rating, Cupgrass, Woolly",woolly cupgrass; [5],10
same,"Plant response rating, Cupgrass, Woolly",woolly cupgrass; [12],30
same,"Cupgrass, Woolly plant response rating","woolly cupgrass; Postemergence, scale 0 to 100",70
same,"Plant response rating, Cupgrass, Woolly",woolly cupgrass; [17],60
same,"Plant response rating, Cupgrass, Woolly",woolly cupgrass; [13],70
same,"Cupgrass, Woolly plant response rating",woolly cupgrass; [7],80
same,"Plant response rating, Cupgrass, Woolly",woolly cupgrass; [14],40
same,"Plant response rating (0 = no effect, 100 = complete control), Foxtail, Giant","giant foxtail; 62 g ai/ha, preemergence",10
same,"Plant response rating, Foxtail, Giant",giant foxtail; [5],60
same,"Plant response rating, Foxtail, Giant",giant foxtail; [12],100
same,"Foxtail, Giant plant response rating","giant foxtail; Postemergence, scale 0 to 100",70
same,"Plant response rating, Foxtail, Giant",giant foxtail; [17],60
same,"Plant response rating, Foxtail, Giant",giant foxtail; [13],60
same,"Foxtail, Giant plant response rating",giant foxtail; [7],100
same,"Plant response rating, Foxtail, Giant",giant foxtail; [14],40
CCNC(=O)c1cccc(NC(=O)c2sc(C(C)(C)C)nc2C)c1 [Compound 198],"Plant response rating, Nutsedge, Yellow",yellow nutsedge; [4],0
same,"Plant response rating, Nutsedge, Yellow",yellow nutsedge; [5],0
same,"Plant response rating, Nutsedge, Yellow",yellow nutsedge; [6],0
same,"Nutsedge, Yellow plant response rating",yellow nutsedge; [7],5
same,Morningglory plant response rating,morningglory [1]; [8],60
same,"Plant response rating, Morningglory",morningglory [1]; [9],75
same,Morningglory plant response rating,morningglory [1]; [10],85
same,Morningglory plant response rating,morningglory [1]; [11],45
same,"Plant response rating, Surinam Grass",Surinam grass; [4],0
same,"Plant response rating, Surinam Grass",Surinam grass; [5],10
same,"Plant response rating, Surinam Grass",Surinam grass; [6],30
same,Surinam Grass plant response rating,Surinam grass; [7],100
same,Velvetleaf plant response rating,velvetleaf; [8],30
same,"Plant response rating, Velvetleaf",velvetleaf; [9],35
same,Velvetleaf plant response rating,velvetleaf; [10],85
same,Velvetleaf plant response rating,velvetleaf; [11],45
same,"Plant response rating, Corn",corn; [4],0
same,"Plant response rating, Corn",corn; [5],0
same,"Plant response rating, Corn",corn; [6],0
same,Corn plant response rating,corn; [7],0
same,"Plant response rating, Lambsquarters",lambsquarters; [4],85
same,"Plant response rating, Lambsquarters",lambsquarters; [5],100
same,"Plant response rating, Lambsquarters",lambsquarters; [6],100
same,Lambsquarters plant response rating,lambsquarters; [7],100
same,"Plant response rating, Sunflower",[2]; [4],0
same,"Plant response rating, Sunflower",[2]; [5],0
same,"Plant response rating, Sunflower",[2]; [6],10
same,Sunflower plant response rating,[2],20
same,"Plant response rating, Morningglory",morningglory [3]; [4],10
same,"Plant response rating, Morningglory",morningglory [3]; [5],70
same,"Plant response rating, Morningglory",morningglory [3]; [6],85
same,Morningglory plant response rating,morningglory [3]; [7],85
same,"Plant response rating, Cupgrass, Woolly",woolly cupgrass; [4],0
same,"Plant response rating, Cupgrass, Woolly",woolly cupgrass; [5],5
same,"Plant response rating, Cupgrass, Woolly",woolly cupgrass; [6],10
same,"Cupgrass, Woolly plant response rating",woolly cupgrass; [7],70
same,"Plant response rating, Foxtail, Giant",giant foxtail; [4],0
same,"Plant response rating, Foxtail, Giant",giant foxtail; [5],10
same,"Plant response rating, Foxtail, Giant",giant foxtail; [6],60
same,"Foxtail, Giant plant response rating",giant foxtail; [7],100
